Ends that are not written are not given here.
Key:
Toxicity at high dosages = assay type: in vivo; conditions: high dosages of 50 mg per kg body weight per day or higher
Protocol: The dosage of Ezrin peptide 1 and its analogues is not particularly critical, as Ezrin peptide 1 and its analogues are not toxic even at high dosages of 50 mg per kg body weight per day or higher. Preferably, Ezrin peptide 1 and its analogues are administered to an adult human in an amount of at least 0.1 mg per day, in particular at least 0.2 mg per day, e.g. in an amount of at least 0.5 mg per day, such as 0.1 to 50 mg per day or 0.2 to 20 mg per day or 0.5 to 10 mg per day. Typically for parental administrations lower dosages will be required than for oral or rectal administration. To achieve a rapid relief of the symptoms of COVID-19 it may be reasonable to administer at least 1 mg per day or at least 2 mg per day but in other cases a lower dosage may be suitable.

[1] = test system: inflammatory cytokine production; conditions: cell cultures; cited from earlier work
J-96 Human Cell Line = conditions: cell cultures (Ataullakhanov et al. 2005); cited from earlier work
SARS-COV-2 = experiment: Treatment of COVID-19 patients with Ezrin peptide 1 (individual case reports, Examples 1-6); assay type: in vivo, human

TEKKRRETVEREKE [Ezrin peptide 1, NH2_Thr-Glu-Lys-Lys-Arg-Arg-Glu-Thr-Val-Glu-Arg-Glu-Lys-Glu_COOH]
toxicity (Toxicity at high dosages): not toxic
production of pro- and inflammatory cytokins (e.g. IL-1, IL-6, TNF-alpha) [1]: reduces
synthesis of alpha- and beta interferons [1]: induces
anti-viral effect (J-96 Human Cell Line): anti-viral effect
severe complications such as fibrosis of the lungs (SARS-COV-2; Example 1): did not occur
course of disease, symptoms (SARS-COV-2; Example 1, patient, 0.2 mg s.c. daily, 16.03.2020, 3rd administration): increasing symptoms with strong eye pain
course of disease, symptoms (SARS-COV-2; Example 1, patient, 0.2 mg s.c. daily, 17.03.2020, 4th administration): increasing symptoms with more cough
course of disease, symptoms (SARS-COV-2; Example 1, patient, 0.2 mg s.c. daily, 18.03.2020, 5th administration): significant signs of recovery, no eye pain, decreasing fever
course of disease, symptoms (SARS-COV-2; Example 1, patient, 0.2 mg s.c. daily, 19.03.2020, 6th administration): significant signs of recovery, normal body temperature, no fatigue
course of disease, symptoms (SARS-COV-2; Example 1, patient, 0.2 mg s.c. daily, 20.03.2020, 7th administration): return of taste, good general condition
course of disease, symptoms (SARS-COV-2; Example 1, patient, 0.2 mg s.c. daily, 21.03.2020, 8th administration): no signs of illness anymore
course of the disease (duration) (SARS-COV-2; Example 1, compared to the course expected for patients of this risk group): significantly shorter
severity of symptoms after administration (SARS-COV-2; Example 1, compared with what one would have expected in a patient of this risk group): significantly lower
course of disease, symptoms (SARS-COV-2; Example 2, patient, 2 mg s.c., 25.04.2020, second dose): still general weakness, shortness of breath, cough, loss of appetite
body temperature (SARS-COV-2; Example 2, patient, 2 mg s.c., 26.04.2020 in the evening, third administration): 37.5 °C
course of disease, symptoms (SARS-COV-2; Example 2, patient, 2 mg s.c., 26.04.2020, third administration): Still loss of appetite, slight cough
course of disease, symptoms (SARS-COV-2; Example 2, patient, 2 mg s.c., 27.04.2020, fourth dose): Slight cough, slight headache
course of disease, symptoms (SARS-COV-2; Example 2, patient, 2 mg s.c., 28.04.2020, fifth administration): Only slight pain of touching the scalp, still slight weakness
course of disease, symptoms (SARS-COV-2; Example 2, patient, 2 mg s.c., 30.04.2020, sixth administration): Significant improvement of clinical symptoms, normal temperature
course of disease, symptoms (SARS-COV-2; Example 2, patient, 01. to 04.05.2020, after six doses, antibiotic coverage): taste completely returned, no more cough, no more fever, clinical well-being
course of disease, symptoms (SARS-COV-2; Example 3, patient, 25.12.2020, therapy begun 23.12.2020 with 2 mg/d s.c.): significant improvement of cough and general condition
course of disease, symptoms (SARS-COV-2; Example 3, patient, after completion of therapy (2 mg/d then 0.2 mg/d for four days, s.c.)): No further symptoms
course of disease, symptoms (SARS-COV-2; Example 4, patient, 25.12.2020, therapy begun 23.12.2020 with 2 mg/d s.c.): significant improvement of cough and general condition
course of disease, symptoms (SARS-COV-2; Example 4, patient, after completion of therapy (2 mg/d two days, 0.2 mg/d four days, s.c.)): No further symptoms
course of disease, symptoms (SARS-COV-2; Example 5, patient, 26.12.2020, therapy begun 23.12.2020 with 2 mg/d s.c.): significant improvement of symptoms
shortness of breath (SARS-COV-2; Example 5, patient, after subsequent 0.2 mg/d s.c. for fourteen days from 15.01.2021): No further shortness of breath
course of disease, symptoms (SARS-COV-2; Example 6, patient, 14.12.2020, 0.2 mg/d s.c. begun 10.12.2020): significant improvement of symptoms
course of disease, symptoms (SARS-COV-2; Example 6, patient, 20.12.2020, 0.2 mg/d s.c. for ten days): complete recovery of symptoms

Source: patent US12629405B2, “Ezrin peptide 1 for use in a method of treating COVID-19” ([…], priority 2020, dated 2026)
